Where a name gives a salt, the structure may show the parent alone. Read-outs that look alike come from different tables or passages of the source.
Tests used:
[1] = Crystallisation peak temperature on heating (Tn), DSC; assay type: physicochemical; conditions: for Tn (16° C./min): 1% salt deposited from solution on PET; for Tn (16° C./min) / Tn(comp.)-Tn(PET) (16° C./min): pressed 280 °C 1 minute, heating rate 16 °C/minute; for Tn: 1% salt on PET I.V. 0.73 from solution; for nucleating activity: in words; for Tn(composition)-Tn(polyester): PET I.V. 0.73 + 1% salt, 2-roll mill 300 °C 2 min, 10 °C/minute; for Tn(comp.)-Tn(PET) (16° C./min): 1% salt deposited from solution on PET chip
Experimental: In one such DSC technique the crystallisation peak temperature difference, Tn(composition)--Tn(polyester) is determined by measuring the crystallisation peak temperatures on heating for the composition in comparison with the polyester of the composition not containing the ionisable salt. The detailed procedure is as follows. Compositions were prepared from the polyester and the additive by mixing on a 2-roll mill at 300° C. for 2 minutes. The sample was taken from the mill and pressed into a film in a compression moulding machine. 10 mg samples of the composition were placed in a capsule, rapidly heated to 290° C. and maintained at that temperature for 1 minute. The capsule was then dropped into water to quench the polymer and prevent crystallisation. The sample was then placed in a Perkin Elmer DSC 2 machine and heated at a rate of 10° C./minute until reaching a temperature of 290° C. The crystallisation peak temperature observed on this heating cycle is recorded and compared with the value for the polyester not containing the additive.
Samples of polyethylene terephthalate (I.V. =0.73) containing 1% of the salts listed in Table 2 were prepared by compounding at 300° C. on a 2-roll mill for 2 minutes. The samples were evaluated to determine Tn(composition-Tn(polyester), the total number of end groups, the number of carboxylate groups and the number of hydroxyl and carboxyl groups.
The salts listed in Table 3 were deposited from solution on the surface of polyethylene terephthalate chip to give a concentration of 1% by weight of salt. The product was dried under vcuum at 96° C. for 3 hours. The compositions were pressed into film using a temperature of 280° C. for 1 minute. The DSC measurements were made after quenching from the melt to prevent crystallisation and using a heating rate of 16° C./minute.
1% by weight of the sodium salt of saccharin was deposited on the surface of granules of a polyethylene terephthalate homopolymer of I.V. =0.73 by evaporating an aqueous solution of the salt from the granules by drying at 96° C. under vacuum for 3 hours. The granules obtained were compression moulded into film by pressing at 280° C. for 60 second. The film was used for measurements of Tn at a heating rate of 16° C./minute.
The effect of the salts listed in Table 4 was determined by taking granules of a polymer of poly(ethylene terephthalate) homopolymer having an intrinsic viscosity of 0.73 and evaporating a solution of the salt in methanol or water from the surface of the granules by drying at 96° C. under vacuum for 3 hours. The proportions of polymer and solution used were such as to give a concentration of 1% of salt by weight of the final dry composition. The granules obtained were compression-moulded into film at 280° C. for various periods of time. The film was used for measurement of Tn as hereinbefore described.
Two samples of polyethylene terephthalate chip (I.V. =0.73) were coated from solution with 1% of the sodium salt of o-hydroxybenzoic acid and the disodium salt of the same acid respectively. After drying for 3 hours in a vacuum oven at 95° C. films were prepared by pressing the products for 1 minute at 280° C.

[2] = Half-crystallisation time (t1/2), isothermal DSC; assay type: physicochemical
Experimental: A DSC 2 Perkin Elmer scanning calorimeter was used.
10 mg of the sample of polymer material are placed in a capsule and introduced into the apparatus, wherein the sample is quickly heated to a temperature of 290° C. at which it is maintained during 1 minute.
The molten polymer material is then very quickly cooled by means of liquid air (at a rate of 320° C. per minute) until the crystallisation temperature is reached.
The crystallisation isotherm is registered on a temperature-time graph and the peak appearing on the registered isotherm is taken as the half-crystallisation time (t1/2).

[3] = Degradation constant K (melt degradation performance); assay type: physicochemical; parameters: unit not given here; conditions: 1% salt in PET, 2-roll mill 270 °C 5 min; molten state 290 °C
Experimental: The melt degradation performance is a measure of the extent of degradation under molten conditions. A convenient method of quantifying the performance is by measuring the "K value". A method for determining this value in the molten state using an Instron Capillary rheometer is given in a paper by J. Devaux et al in Makromol.
This method is carried out on samples prepared by reacting the salt with the polyester on a 2 roll-mill at a temperature above the melting point of the polyester for 5 minutes and then pressing the product obtained into a 2 mm thick sheet using the same temperature for 3 minutes before cooling to room temperature. The method is described for polyethylene terephthalate but can be readily adapted for other polyesters.
For polyethylene terephthalate the K value in the presence of salt should be less than 60.

[4] = Solubility parameter δ of the acid
[5] = ΔT = Tc(cooling) - Tn(heating), DSC; assay type: physicochemical; conditions: 1% salt in PET, 2-roll mill 270 °C 5 min; 10 °C/minute
Experimental: An alternative method for assessing the effectiveness of nucleation of an additive is to compare the difference between the value of the crystallisation peak on cooling (Tc) with that on heating (Tn) for a composition containing an ionisable salt. The value obtained from this comparison, Tc(cooling) -Tn(heating) is termed ΔT. […] Samples of polyester together with 1% of the salt under test were mixed in a 2-roll mill at 270° C. for 5 minutes. The sample produced was pressed into 2 mm thick sheets at 270° C. for 3 minutes and then cooled to room temperature. 10 mg of the sample was placed in a capsule and rapidly heated to 290° C. After maintaining this temperature for 1 minute the capsule was quenched in water. The crystallisation peak temperatures on heating (Tn) and cooling (Tc) were determined using heating and cooling rates of 10° C./minute on a Perkin Elmer DSC 2 machine.

[6] = End group determination; assay type: physicochemical
Experimental: The numbers of hydroxyl and carboxyl groups were also determined according to the procedure given in this paper.
[…] The samples were evaluated to determine Tn(composition-Tn(polyester), the total number of end groups, the number of carboxylate groups and the number of hydroxyl and carboxyl groups.

[7] = PET I.V. 0.73 + 1% salt, 2-roll mill 300 °C 2 min
[8] = 1% salt deposited from solution on PET chip, pressed 280 °C 1 minute

O=C([O-])c1ccc2cc(O)ccc2c1.[Na+] [Sodium 6-hydroxy-2-naphthoate]
Tn (16° C./min) [1]: 116 °C

COC(=O)c1ccc(C(=O)[O-])cc1.[K+] [Potassium monomethyl terephthalate, reference compound]
Tn ([1]; time in press 30 sec at 280 °C): 138.5 °C
Tn ([1]; time in press 60 sec at 280 °C): 137.5 °C
nucleating activity [1]: only slight nucleating activity

O=C(O)c1ccccc1[N+](=O)[O-] [ortho-nitrobenzoic acid]
t1/2 (sec) 110° C. ([2]; 110 °C, 1% salt in PET, 2-roll mill 270 °C 5 min, after melting 1 minute at 290 °C): 65 s
t1/2 (sec) 120° C. ([2]; 120 °C, 1% salt in PET, 2-roll mill 270 °C 5 min, after melting 1 minute at 290 °C): 45 s
K [3]: 20
δ × pKH.sbsb.2O ([4]; product for the acid): 30
ΔT [5]: 106 °C

O=[PH](O)C1CCCCC1 [Calcium cyclohexyl phosphinate]
Tn (16° C./min) [1]: 129 °C

O=C([O-])c1ccc(C(=O)[O-])cc1.[Na+].[Na+] [Disodium terephthalate, reference compound]
Tn ([1]; time in press 30 sec at 280 °C): 141 °C
Tn ([1]; time in press 60 sec at 280 °C): 140 °C
nucleating activity [1]: only slight nucleating activity

O=C([O-])c1cc(O)cc(O)c1.[Na+] [sodium 3,5-dihydroxybenzoate]
% of carboxylate end group [6, 7]: 0%
End Groups Carboxylate [6, 7]: 0 moles × 10^-6 g^-1
End Groups Total from solution I.V. [6, 7]: 138 moles × 10^-6 g^-1
Tn(composition)-Tn(polyester) [1]: 7 °C

O=[PH](O)c1ccccc1 [Sodium phenyl phosphinate]
End Groups --COOH [6, 8]: 25 moles × 10^-6 g^-1
End Groups --OH [6, 8]: 66 moles × 10^-6 g^-1
Tn (16° C./min) [1]: 117 °C

COC(=O)c1ccc(C(=O)[O-])cc1.[Na+] [Sodium monomethyl terephthalate, reference compound]
Tn ([1]; time in press 60 sec at 280 °C): 132 °C
nucleating activity [1]: only slight nucleating activity

O=C([O-])c1cccc2ccccc12.[Na+]
Tn (16° C./min) [1]: 111 °C

O=C([O-])c1cccc2cccc(Br)c12.[Na+] [Sodium 8-bromo-1-naphthoate]
Tn (16° C./min) [1]: 124 °C

O=C([O-])Cc1cccc2ccccc12.[Na+] [sodium 1-naphthylacetate]
t1/2 (sec) 110° C. [2]: 55 s
t1/2 (sec) 120° C. [2]: 30 s
K [3]: 30

CC(C)(C)c1ccc(C(=O)[O-])cc1.[Na+] [sodium para-tert-butylbenzoate, reference compound]
t1/2 (sec) 110° C. [2]: 150 s
t1/2 (sec) 120° C. [2]: 55 s
K [3]: 109
% of carboxylate end group [6, 7]: 2.5%
End Groups --COOH [6, 7]: 83 moles × 10^-6 g^-1
End Groups --OH [6, 7]: 56 moles × 10^-6 g^-1
End Groups Carboxylate [6, 7]: 4 moles × 10^-6 g^-1
End Groups Total from solution I.V. [6, 7]: 157 moles × 10^-6 g^-1
δ × pKH.sbsb.2O ([4]; product for the acid): 62
Tn(composition)-Tn(polyester) [1]: 19 °C
ΔT [5]: 92.5 °C

O=C([O-])c1c(O)cccc1O.[Na+] [sodium 2,6-dihydroxybenzoate]
% of carboxylate end group [6, 7]: 3.9%
End Groups --COOH [6, 7]: 55 moles × 10^-6 g^-1
End Groups --OH [6, 7]: 69 moles × 10^-6 g^-1
End Groups Carboxylate [6, 7]: 5 moles × 10^-6 g^-1
End Groups Total from solution I.V. [6, 7]: 127 moles × 10^-6 g^-1
Tn(composition)-Tn(polyester) [1]: 24 °C

O=C([O-])c1ccc(O)cc1.[Na+] [sodium p-hydroxybenzoate]
% of carboxylate end group [6, 7]: 2.7%
End Groups --COOH [6, 7]: 102 moles × 10^-6 g^-1
End Groups --OH [6, 7]: 64 moles × 10^-6 g^-1
End Groups Carboxylate [6, 7]: 4 moles × 10^-6 g^-1
End Groups Total from solution I.V. [6, 7]: 148 moles × 10^-6 g^-1
Tn(composition)-Tn(polyester) [1]: 20 °C

O=C(O)c1ccccc1C(=O)O [Potassium hydrogen orthophthalate, reference compound]
Tn ([1]; time in press 30 sec at 280 °C): 142.5 °C
Tn ([1]; time in press 60 sec at 280 °C): 144.5 °C

O=C(O)c1ccc(-c2ccccc2)cc1 [Sodium salt of 4-biphenylcarboxylic acid]
End Groups --COOH [6, 8]: 31 moles × 10^-6 g^-1
End Groups --OH [6, 8]: 61 moles × 10^-6 g^-1
End Groups Total from solution I.V. [6, 8]: 107 moles × 10^-6 g^-1
Tn(comp.)-Tn(PET) (16° C./min) [1]: 16 °C
Tn (16° C./min) [1]: 131 °C

O=C(O)c1ccccc1-c1ccccc1 [Sodium salt of 2-biphenylcarboxylic acid]
End Groups --COOH [6, 8]: 26 moles × 10^-6 g^-1
End Groups --OH [6, 8]: 60 moles × 10^-6 g^-1
End Groups Total from solution I.V. [6, 8]: 133 moles × 10^-6 g^-1
Tn(comp.)-Tn(PET) (16° C./min) [1]: 22 °C
Tn (16° C./min) [1]: 121 °C

COc1ccc2cc(C(=O)[O-])ccc2c1.[Na+] [Sodium 6-methoxy-2-naphthoate]
Tn (16° C./min) [1]: 119 °C

O=C(O)c1ccccc1 [sodium benzoate, reference compound]
t1/2 (sec) 110° C. [2]: 90 s
t1/2 (sec) 120° C. [2]: 45 s
K [3]: 88
% of carboxylate end group [6, 7]: 9.6%
End Groups --COOH [6, 7]: 44 moles × 10^-6 g^-1
End Groups --OH [6, 7]: 54 moles × 10^-6 g^-1
End Groups Carboxylate [6, 7]: 13 moles × 10^-6 g^-1
End Groups Total from solution I.V. [6, 7]: 136 moles × 10^-6 g^-1
δ × pKH.sbsb.2O [4]: 55
Tn ([1]; time in press 30 sec at 280 °C): 115.5 °C
Tn ([1]; time in press 60 sec at 280 °C): 117 °C
Tn(composition)-Tn(polyester) [1]: 27 °C
ΔT [5]: 99 °C

O=C([O-])c1c(Cl)cccc1Cl.[Na+] [sodium 2,6-dichlorobenzoate]
% of carboxylate end group [6, 7]: 9.8%
End Groups --COOH [6, 7]: 51 moles × 10^-6 g^-1
End Groups --OH [6, 7]: 56 moles × 10^-6 g^-1
End Groups Carboxylate [6, 7]: 15 moles × 10^-6 g^-1
End Groups Total from solution I.V. [6, 7]: 153 moles × 10^-6 g^-1
Tn(composition)-Tn(polyester) [1]: 25 °C

O=C(O)c1ccc2ccccc2c1 [Sodium salt of 2-naphthoic acid]
End Groups --COOH [6, 8]: 31 moles × 10^-6 g^-1
End Groups --OH [6, 8]: 60 moles × 10^-6 g^-1
End Groups Total from solution I.V. [6, 8]: 121 moles × 10^-6 g^-1
Tn(comp.)-Tn(PET) (16° C./min) [1]: 25 °C
Tn (16° C./min) [1]: 120 °C

O=C([O-])c1cccc2c(O)cccc12.[Na+] [Sodium 5-hydroxy-1-naphthoate]
Tn (16° C./min) [1]: 132 °C

O=C([O-])Cc1ccccc1.[Na+] [sodium phenylacetate]
t1/2 (sec) 110° C. [2]: 55 s
t1/2 (sec) 120° C. [2]: 30 s
K [3]: less than 15

From US4393178A, “Fast crystallizing polyester compositions” (priority 1979, dated 1983)
